Data on 5 molecules can be found in patent US12168037B2, “Intracellular IL-1 alpha peptide methods and compositions” (CEDARS-SINAI MEDICAL CENTER, priority 2018, dated 2024).

Peptide text beside a SMILES is read from it. * marks the point of attachment. Cbz = O=C(OCc1ccccc1)*

The test system of one experiment is S87A-IL-1α protein. Put plainly: S87A-IL-1α protein stability in stably transfected 293 cells (western blot). It is filed as cell-based, human. The settings on record: 293 cells stably expressing S87A-IL-1α, MG132 5 hours vs DMSO. The protocol:
FIGS. 1A-1C depict in accordance with various embodiments of the invention, that serine phosphorylation is required for IL-1α protein stability. FIG. 1A) Relative expression of IL-1α mRNA by qPCR. FIG. 1B) Western Blot of IL-1α protein level in cell lysates. FIG. 1C) Western blot of IL-1α in cell lysates of cells treated with DMSO or MG132 for 5 hours.
Human IL-1α is phosphorylated at the serine 87 (S87) residue (mouse equivalent to S90) of the N-terminal pro-piece by protein kinase A (PKA). […] IL-1α phosphorylation is required for its membrane localization. A mutant IL-1α plasmid cDNA was made for studying the role of IL-1α subcellular localization: the Serine at 87 was exchanged with Alanine (S87A) using the QuikChange Site-Directed Mutagenesis kit, Cat #200518 and human pCMV-IL-1α-flag plasmid DNA (Sino Biological Inc. Cat #HG10128-M-F). Primers were designed by the QuikChange Primer Design software program.
Wild-type (WT)-IL-1α or mutant S87A-IL-1α plasmid was transfected into 293 cells and stable expressing cells lines were made. These cells express similar levels of IL-1α mRNA (FIG. 1A). IL-1α protein was detected only in WT-IL-1α transfected cells but not mutant S87A-IL-1α transfected cells (FIG. 1B). […] Based on this finding, a pseudosubstrate peptide was made to inhibit IL-1α phosphorylation, which may provide a more convenient way to control IL-1α during inflammation. […]

Experiment [1] in a line: Membrane lipid strip binding (ECL detection). The conditions noted are these: membrane lipid strips incubated with peptide (5 μg) or recombinant protein. The protocol: FIGS. 12A-12F depict in accordance with various embodiments of the invention, that the iIL-1α-peptide reduces cutaneous melanoma tumor. FIG. 12A-12B) Membrane lipid strips were incubated with (5 μg) SPDIA or Control peptide and detected by ECL. FIG. 12C) B16 or YUMM1.7 cells were treated with SPDIA or Control peptide (40 μg/ml) for 5 h, and pAkt1 and Akt1 in cell lysate were determined by WB. FIG. 12D) Experimental scheme. FIG. 12E) tumor pictures. FIG. 12F) Quantification of tumor volume, ** p<0.05. and Quantification of tumor mass, ** p<0.05. n=5.
FIGS. 14A-14C show intracellular IL-1α reduced Akt1 activation. FIG. 14A) pAkt1 and total Akt1 in cell lysate was determined by WB. FIG. 14B) Membrane lipid strip was incubated with recombinant human proIL-1α. IL-1α was detected by ECL system. FIG. 14C) PIP3 and Na, K-ATPase levels in plasma membrane fraction were determined by WB.
Intracellular IL-1α reduced Akt1 activation.
IL-1α pro-piece reduces melanoma tumor progression. To investigate the suppressive effect of intracellular proIL-1α in melanoma tumor progression, we designed a short Peptide Derived from IL-1A pro-piece (SPDIA) “GKVLKKRRLSL” (SEQ ID NO:1).

The next experiment deals with IL-1α protein. Put plainly: IL-1α protein level in LPS-stimulated peritoneal macrophages (western blot). It is filed as cell-based. The settings on record: peritoneal macrophages pretreated with peptide 1 hour, stimulated with LPS (3 hours), compared to LPS alone. The protocol: FIG. 2 depicts in accordance with various embodiments of the invention, that TAT-IL-1α peptide diminished IL-1α protein level. Peritoneal macrophages were pretreated with TAT-IL-1α or TAT-control peptides for 1 hour and stimulated with LPS (3 hours). The IL-1α protein level in cell lysate was detected by Western Blot. GAPDH was measured as a loading control.
The inventors investigated whether TAT-IL-1α peptide triggers IL-1α protein degradation by reducing its serine phosphorylation. Peritoneal macrophages were pretreated with TAT-IL-1α or TAT-Control peptides for 1 hour, stimulated with LPS, and the IL-1α protein level in whole cell lysate was detected by western blot (WB) (FIG. 2). The IL-1α protein level was decreased in TAT-IL-1α treated cells.

The target of another experiment is T1, Akt1 (Mus musculus, UniProt P31750).
T1 construct: endogenous in cells
T1 sequence (P31750 whole entry): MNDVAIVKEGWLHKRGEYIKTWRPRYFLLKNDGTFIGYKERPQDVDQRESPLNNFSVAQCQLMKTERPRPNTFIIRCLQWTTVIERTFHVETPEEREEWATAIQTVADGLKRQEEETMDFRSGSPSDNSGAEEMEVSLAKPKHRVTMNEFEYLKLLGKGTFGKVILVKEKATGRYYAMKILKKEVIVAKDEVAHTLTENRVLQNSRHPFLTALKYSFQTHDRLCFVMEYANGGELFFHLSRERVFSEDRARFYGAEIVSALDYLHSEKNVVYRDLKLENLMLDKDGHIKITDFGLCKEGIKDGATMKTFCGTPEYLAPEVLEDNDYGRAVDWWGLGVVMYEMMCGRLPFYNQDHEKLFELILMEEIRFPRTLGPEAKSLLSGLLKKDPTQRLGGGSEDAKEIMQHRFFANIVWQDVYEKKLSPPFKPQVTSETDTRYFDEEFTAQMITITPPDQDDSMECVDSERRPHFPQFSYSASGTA
Put plainly: Akt1 activation (pAkt1) in melanoma cells by western blot. It is filed as cell-based. The settings on record: B16 or Yumm 1.7 murine melanoma cells, TAT-IL-1α 40 μg/ml, 5 hours, vs TAT-Control peptide. The protocol:
FIG. 3 depicts in accordance with various embodiments of the invention, that TAT-IL-1α peptide diminished Akt1 activation and increased HK-2 mitochondrial dissociation. B16 or Yumm 1.7 murine melanoma cells were treated with TAT-IL-1α (40 μg/ml) or TAT-Control peptide for 5 hours. HK-2 level and pAkt1 activation in the cytosolic and mitochondrial fraction were detected by Western Blot. GAPDH was measured as a loading control.
FIGS. 10A-10C depict in accordance with various embodiments of the invention, the iIL-1α-peptide reduces Akt1 activation and glycolysis in melanoma cells. […] FIG. 10B) HK-2 and pAkt1 in cytosolic and mitochondrial fraction were determined by WB. […] FIG. 10C) Extracellular acidification rate (ECAR) was measured by Seahorse and compared over time in PBS and iIL-1α-peptide treated mice.
FIGS. 12A-12F depict in accordance with various embodiments of the invention, that the iIL-1α-peptide reduces cutaneous melanoma tumor. FIG. 12A-12B) Membrane lipid strips were incubated with (5 μg) SPDIA or Control peptide and detected by ECL. FIG. 12C) B16 or YUMM1.7 cells were treated with SPDIA or Control peptide (40 μg/ml) for 5 h, and pAkt1 and Akt1 in cell lysate were determined by WB. […] FIG. 12F) Quantification of tumor volume, ** p<0.05. and Quantification of tumor mass, ** p<0.05. n=5. […]

The subject of another experiment is hexokinase 2 (HK-2). Put plainly: HK-2 mitochondrial/cytosolic fraction level in melanoma cells by western blot. The format is cell-based, mouse. The conditions noted are these: B16 or Yumm 1.7 cells, 40 μg/ml, 5 hours, vs TAT-Control.
The test system of the next experiment is B16 melanoma cells. Description: B16 melanoma lung metastasis/colonization model (tail vein injection). It is filed as in vivo, mouse. The conditions noted are these: vs TAT-Control peptide; for melanoma (lung) metastasis: B16 cells i.v. in female WT mice, peptide i.v. five days later, lungs harvested five days post treatment. An excerpt: FIGS. 4A-4C depict in accordance with various embodiments of the invention, that TAT-IL-1α peptide reduced lung metastasis. FIG. 4A) Experimental Schematic (top), metastatic lungs (bottom images). FIG. 4B) Quantification of tumor number in TAT-Control and TAT-IL-1α. FIG. 4C) Melanin content of the metastatic lungs in TAT-Control and TAT-IL-1α.
FIGS. 11A-11C depict in accordance with various embodiments of the invention, that the iIL-1α-peptide reduces melanoma colonization in the lung. FIG. 11A) Experimental scheme and representative lung pictures. FIG. 11B) Quantification of tumor number, **p<0.01. FIG. 11C) Quantification of melanin content, *p<0.05. n=4.
The B16 (also referred herein as “B16F10”) mouse melanoma metastasis model is widely accepted, as B16 cells injected via tail vein reliably colonize the lungs, with easily identifiable tumors after 7-14 days. While the use of a genetic melanoma model may be ideal, it requires the use of immunodeficient mice or the complicated and expensive humanized mice. While the B16 model may have its known caveats, it has repeatedly given very useful novel mechanistic clues that can be further tested in more relevant models, such as genetically engineered mice. In addition to the B16 model, a mouse melanoma cell line with human genetic drivers that are more relevant to human melanoma formation and progression were also used. To this effect, a non-immunogenic cell line (YUMM1.7) was used. In the YUMM1.7 cells, nearly 50% of human melanomas harbor a gain of function in the Braf^V600E Cdkn2a−/− Pten−/− mutations and they form reliable lung tumors following tail vein injection (5×10^5, in 3 weeks). Other common mutations in human melanoma include CDKN2A (familial melanoma gene), inactivation of tumor suppressors including INK4A, ARF, p53, and PTEN, as well as mutations in proto-oncogenes such as H-RAS, N-RAS, and K-RAS.
The peptides were subsequently tested in vivo. B16 melanoma cells were intravenously (i.v.) injected in the tail vein of female WT mice. Five days later, TAT-IL-1α or TAT-Control peptide was injected in the tail vein (i.v.). Five days post treatment, lungs were harvested and examined for metastasis. […] The tumor number and melanin content were diminished in the TAT-IL-1α treatment group compared to TAT-Control peptide treatment. (FIGS. 4B and 4C).
The mouse models used were C57Bl/6 WT or Il1α−/− mice injected with B16 cells (2×10^5 tail vein), (3×10^5 subcutaneous) or C57Bl/6 WT mice injected with YUMM1.7 cells (5×10^5 subcutaneous). The IL-1α, pAkt1 and HK-2 levels were determined by WB. The glycolytic rate in B16 cells was measured by Seahorse.
The iIL-1α-peptide reduces tumor burden in vivo. The protective role of the iIL-1α-peptide against melanoma colonization was investigated. […] The mice were analyzed 5 days later.

Where [2] appears, read: B16 i.v. model, peptide i.v. day 5.

Experimental for hexokinase 2 (HK-2): B16 cells isolated from tumors from WT mice were treated with iIL-1α-mimic peptide (iIL-1α-peptide) (40 μg/ml) or PBS for 5 hours. […] FIG. 10B) HK-2 and pAkt1 in cytosolic and mitochondrial fraction were determined by WB. COX-IV and GAPDH was used as a loading controls.
B16 cells were isolated from WT mice and cultured in-vitro. The cells were treated with the iIL-1α-mimic peptide (iIL-1α peptide) or PBS for 5 hours (FIG. 10).
B16 or Yumm1.7 melanoma cells were treated with PBS or iIL-1α-peptide (40 μg/ml) for 5 hours, and HK-2 levels and Akt1 activation in the mitochondrial and cytosolic fraction were determined by western blot.

Consider `CC(C)C[C@@H](C=O)NC(=O)[C@H](CC(C)C)NC(=O)[C@H](CC(C)C)NC(=O)OCc1ccccc1` [MG132] (Cbz-Leu-Leu-Leu-aldehyde), for which, in the experiment on S87A-IL-1α protein, the “S87A-IL-1α protein in cell lysate” value is listed as “clearly detected”.

As to “GKVLKKAALSL [control peptide, SPDIA with arginine residues replaced by alanine, reference compound]”, the “interaction with phosphoinositides on membrane lipid strip” value in experiment [1] was “fails to bind with PIP and PIP2”.

On to “YGRKKRRQRRRLAKARLAL [TAT-Control peptide, control peptide for TAT-IL-1α peptide, reference compound]”, for which the “IL-1α protein level in whole cell lysate” value in the experiment on IL-1α protein is reported as “slightly decreased”.

With YGRKKRRQRRRLKKRRLSL [TAT-IL-1α peptide], the “Akt1 activation (pAkt1)” value with Akt1 was “diminished”; with Akt1 (listed as TAT-IL-1α) it was “significantly inhibited”. For the same molecule, in the experiment with hexokinase 2 (HK-2), the HK-2 mitochondrial dissociation result is recorded as “increased”. The HK-2 mitochondrial translocation entry in the experiment with hexokinase 2 (HK-2) is listed as “diminished”. For the same molecule, the “melanoma (lung) metastasis” value with B16 melanoma cells was “reduced”; in the experiment with B16 melanoma cells (listed as TAT-IL-1α), “significantly reduced”. Also, the “melanin content of the metastatic lungs” value in the experiment with B16 melanoma cells (setting [2]) was “diminished”. In the experiment with B16 melanoma cells (setting [2]), the “tumor number (metastatic lungs)” value is recorded as “diminished”. The “IL-1α protein level in whole cell lysate” value in the experiment on IL-1α protein is given as “diminished”; with IL-1α protein (listed as TAT-IL-1α) it was “decreased”.

B1: proIL-1α: recombinant human proIL-1α incubated with membrane lipid strip (protein, UniProt P01583 1-271, looked up)
pro-form: MAKVPDMFEDLKNCYSENEEDSSSIDHLSLNQKSFYHVSYGPLHEGCMDQSVSLSISETSKTSKLTFKESMVVVATNGKVLKKRRLSLSQSITDDDLEAIANDSEEEIIKPRSAPFSFLSNVKYNFMRIIKYEFILNDALNQSIIRANDQYLTAAALHNLDEAVKFDMGAYKSSKDDAKITVILRISKTQLYVTAQDEDQPVLLKEMPEIPKTITGSETNLLFFWETHGTKNYFTSVAHPNLFIATKQDYWVCLAGGPPSITDFQILENQA
modifications: pro-form
notes: recombinant human proIL-1α incubated with membrane lipid strip
Consider B1, for which the “interaction with phosphoinositides on membrane lipid strip” value in experiment [1] is “interaction with phosphoinositides such as PI(4)P (PIP), PI(4,5)P2 (PIP2) and PI(3,4,5)P3 (PIP3)”.
